The results in this text go back to patent publication US20250312462A1, “PAK1 DEGRADERS AND METHODS OF USE THEREOF” (INSTITUTE FOR CANCER RESEARCH D/B/A THE RESEARCH INSTITUTE …, priority 2022, published 2025).

In one test the target is NEK1 (Homo sapiens, UniProt Q96PY6). The test is described as follows: KINOMEscan. The following applies: read-out: Percent Control.
In a further test the target is T1, Aiolos (IKZF3) (Homo sapiens, UniProt Q96SW2+Q9UKT9).
T1 construct: endogenous in cells; host or cells: MOLT4
The test is described as follows: Global multiplexed mass spectrometry proteomics in MOLT4 cells. It is filed as cell-based. The conditions noted are these: 1 μM, 5 hours. As for the experimental part:
(§1) MOLT4 cells were treated with DMSO in biological triplicate and 1 μM BJG-05-039 for 5 hours and harvested by centrifugation. Cell lysis was performed by the addition of Urea buffer (8 M Urea, 50 mM NaCl, 50 mM 4-(2-hydroxyethyl)-1-piperazineethanesulfonic acid (EPPS) pH 8.5, Protease and Phosphatase inhibitors) followed by manual homogenization by 20 passes through a 21-gauge (1.25 in. long) needle. Lysate was clarified by centrifugation at 4° C. and protein quantified using bradford (Bio-Rad) assay. 100 μg of protein for each sample was reduced, alkylated and precipitated using methanol/chloroform as described (Donovan, et al. (2018) Elife 7: e38430). The resulting precipitated protein was resuspended in 4 M Urea, 50 mM HEPES pH 7.4, buffer for solubilization, followed by dilution to 1 M urea with the addition of 200 mM EPPS, pH 8. Proteins were digested for 12 hours at room temperature with LysC (1:50 ratio), followed by dilution to 0.5 M urea and a second digestion step was performed by addition of trypsin (1:50 ratio) for 6 hours at 37° C. Anhydrous ACN was added to each peptide sample to a final concentration of 30%, followed by addition of Tandem mass tag (TMT) reagents at a labelling ratio of 1:4 peptide:TMT label. TMT labelling occurred over a 1.5 hour incubation at room temperature followed by quenching with the addition of hydroxylamine to a final concentration of 0.3%. Each of the samples were combined using adjusted volumes and dried down in a speed vacuum followed by desalting with C18 SPE (Sep-Pak, Waters). […]
(§2) Quantification was performed using a MS3-based TMT method as described (Donovan et al. (2020) Cell 183(6):1714-1731). […]
(§3) Proteome Discoverer 2.4 (Thermo Fisher Scientific) was used for .RAW file processing and controlling peptide and protein level false discovery rates, assembling proteins from peptides, and protein quantification from peptides. […]

A further test has as its target T2, RNF166 (Homo sapiens, UniProt Q96A37+Q96SW2).
T2 construct: endogenous in cells; host or cells: MOLT4
The description is as above. In kind it is cell-based. The following applies: 1 μM, 5 hours. How it is done: as §1, §2, §3

The target of the next test is T3, Ikaros (IKZF1) (Homo sapiens, UniProt Q13422+Q96SW2).
T3 construct: endogenous in cells; host or cells: MOLT4
The test is described as above. The following applies: 1 μM, 5 hours. In kind it is cell-based. How it is done:
as §1, §2, §3

A further test has as its target MYLK (Homo sapiens, UniProt Q15746). The test is described as follows: KINOMEscan. The conditions noted are these: read-out: Percent Control.
The next test addresses MEK4 (Homo sapiens, UniProt P45985). In words: KINOMEscan. The following applies: read-out: Percent Control.
In another test the target is MKNK1 (Homo sapiens, UniProt Q9BUB5). The test is described as follows: KINOMEscan. The following applies: read-out: Percent Control.
The next test has as its target S6K1 (Homo sapiens, UniProt P23443). The test is described as follows: KINOMEscan. The conditions noted are these: read-out: Percent Control.
The target of another test is LKB1 (Homo sapiens, UniProt Q15831). In words: KINOMEscan. The following applies: read-out: Percent Control.
Another test has as its target MYLK4 (Homo sapiens, UniProt Q86YV6). In words: KINOMEscan. The conditions noted are these: read-out: Percent Control.
For the next test, the target named is HUNK (Homo sapiens, UniProt P57058). The test is described as follows: KINOMEscan. The following applies: read-out: Percent Control.
The target in a further test is EPHA5 (Homo sapiens, UniProt P54756). In words: KINOMEscan. The conditions noted are these: read-out: Percent Control.
Another test concerns the target SGK2 (Homo sapiens, UniProt Q9HBY8). In words: KINOMEscan. The conditions noted are these: read-out: Percent Control.
A further test deals with PLK2 (Homo sapiens, UniProt Q9NYY3). In words: KINOMEscan. The conditions noted are these: read-out: Percent Control.
Another test concerns the target EGFR(L747-T751del, Sins) (Homo sapiens, UniProt P00533, DEL747-750/T751S). In words: KINOMEscan. The following applies: read-out: Percent Control.
Test [1] concerns the target RSK2(Kin.Dom.2-C-terminal) (Homo sapiens, UniProt P51812). The test is described as follows: KINOMEscan. The conditions noted are these: read-out: Percent Control.
Description: (§4) The kinase engagement assay (KINOMEscan®) was performed by DiscoverX assessing binding abilities toward a set of kinases.
Test [2] addresses ABL1(T315I)-phosphorylated (Homo sapiens, UniProt P00519, T315I). The test is described as follows: KINOMEscan. The conditions noted are these: read-out: Percent Control.
Description: as §4

Sequence of MKNK1 (Q9BUB5 whole entry): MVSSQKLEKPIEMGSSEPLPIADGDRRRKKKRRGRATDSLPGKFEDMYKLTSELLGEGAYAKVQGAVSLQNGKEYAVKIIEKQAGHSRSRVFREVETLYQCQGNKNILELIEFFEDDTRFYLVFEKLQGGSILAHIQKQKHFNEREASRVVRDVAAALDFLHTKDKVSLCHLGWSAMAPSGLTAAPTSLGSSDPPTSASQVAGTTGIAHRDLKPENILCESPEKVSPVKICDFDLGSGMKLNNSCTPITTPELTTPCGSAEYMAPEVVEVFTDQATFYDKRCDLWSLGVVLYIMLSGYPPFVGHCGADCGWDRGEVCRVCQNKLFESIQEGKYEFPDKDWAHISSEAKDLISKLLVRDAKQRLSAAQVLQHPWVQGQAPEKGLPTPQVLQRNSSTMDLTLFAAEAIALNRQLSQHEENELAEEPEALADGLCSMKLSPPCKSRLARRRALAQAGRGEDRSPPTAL
Sequence of SGK2 (Q9HBY8 whole entry): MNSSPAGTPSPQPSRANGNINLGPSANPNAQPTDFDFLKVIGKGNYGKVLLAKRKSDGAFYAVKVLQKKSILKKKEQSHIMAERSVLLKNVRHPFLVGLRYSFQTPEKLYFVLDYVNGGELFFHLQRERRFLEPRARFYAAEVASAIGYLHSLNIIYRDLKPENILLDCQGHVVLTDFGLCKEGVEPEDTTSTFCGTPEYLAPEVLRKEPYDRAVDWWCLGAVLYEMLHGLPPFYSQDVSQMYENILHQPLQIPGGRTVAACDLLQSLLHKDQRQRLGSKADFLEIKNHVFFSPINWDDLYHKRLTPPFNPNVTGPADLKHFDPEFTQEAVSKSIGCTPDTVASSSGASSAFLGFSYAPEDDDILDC
T3 sequence (Q13422 whole entry): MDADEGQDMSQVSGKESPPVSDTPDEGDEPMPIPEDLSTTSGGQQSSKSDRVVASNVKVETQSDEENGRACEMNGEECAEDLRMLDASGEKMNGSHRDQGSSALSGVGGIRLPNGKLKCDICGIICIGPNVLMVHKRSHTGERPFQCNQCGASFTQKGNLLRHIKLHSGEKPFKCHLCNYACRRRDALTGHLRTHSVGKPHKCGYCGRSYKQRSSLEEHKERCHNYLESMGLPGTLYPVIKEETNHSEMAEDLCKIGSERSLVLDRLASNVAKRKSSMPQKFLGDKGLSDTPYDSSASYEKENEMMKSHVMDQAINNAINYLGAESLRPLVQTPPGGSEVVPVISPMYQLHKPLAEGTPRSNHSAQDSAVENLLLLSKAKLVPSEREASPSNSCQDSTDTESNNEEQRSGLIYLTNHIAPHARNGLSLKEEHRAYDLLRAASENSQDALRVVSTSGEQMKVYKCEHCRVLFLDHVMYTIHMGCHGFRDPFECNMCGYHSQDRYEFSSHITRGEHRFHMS
T3 sequence (Q96SW2 whole entry): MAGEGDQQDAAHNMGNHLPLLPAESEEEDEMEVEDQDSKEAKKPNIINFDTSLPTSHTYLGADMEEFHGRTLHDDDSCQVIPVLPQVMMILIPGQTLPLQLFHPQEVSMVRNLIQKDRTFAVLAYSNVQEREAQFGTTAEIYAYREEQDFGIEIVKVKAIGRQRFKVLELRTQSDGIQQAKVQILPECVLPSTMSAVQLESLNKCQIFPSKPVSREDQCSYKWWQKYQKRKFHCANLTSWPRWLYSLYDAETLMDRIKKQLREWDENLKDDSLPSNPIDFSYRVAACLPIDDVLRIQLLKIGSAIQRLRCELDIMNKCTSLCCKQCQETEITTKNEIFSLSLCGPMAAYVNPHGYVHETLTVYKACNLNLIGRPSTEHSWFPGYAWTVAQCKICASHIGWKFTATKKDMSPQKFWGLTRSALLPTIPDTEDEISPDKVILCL
T3 sequence (Q16531 whole entry partner): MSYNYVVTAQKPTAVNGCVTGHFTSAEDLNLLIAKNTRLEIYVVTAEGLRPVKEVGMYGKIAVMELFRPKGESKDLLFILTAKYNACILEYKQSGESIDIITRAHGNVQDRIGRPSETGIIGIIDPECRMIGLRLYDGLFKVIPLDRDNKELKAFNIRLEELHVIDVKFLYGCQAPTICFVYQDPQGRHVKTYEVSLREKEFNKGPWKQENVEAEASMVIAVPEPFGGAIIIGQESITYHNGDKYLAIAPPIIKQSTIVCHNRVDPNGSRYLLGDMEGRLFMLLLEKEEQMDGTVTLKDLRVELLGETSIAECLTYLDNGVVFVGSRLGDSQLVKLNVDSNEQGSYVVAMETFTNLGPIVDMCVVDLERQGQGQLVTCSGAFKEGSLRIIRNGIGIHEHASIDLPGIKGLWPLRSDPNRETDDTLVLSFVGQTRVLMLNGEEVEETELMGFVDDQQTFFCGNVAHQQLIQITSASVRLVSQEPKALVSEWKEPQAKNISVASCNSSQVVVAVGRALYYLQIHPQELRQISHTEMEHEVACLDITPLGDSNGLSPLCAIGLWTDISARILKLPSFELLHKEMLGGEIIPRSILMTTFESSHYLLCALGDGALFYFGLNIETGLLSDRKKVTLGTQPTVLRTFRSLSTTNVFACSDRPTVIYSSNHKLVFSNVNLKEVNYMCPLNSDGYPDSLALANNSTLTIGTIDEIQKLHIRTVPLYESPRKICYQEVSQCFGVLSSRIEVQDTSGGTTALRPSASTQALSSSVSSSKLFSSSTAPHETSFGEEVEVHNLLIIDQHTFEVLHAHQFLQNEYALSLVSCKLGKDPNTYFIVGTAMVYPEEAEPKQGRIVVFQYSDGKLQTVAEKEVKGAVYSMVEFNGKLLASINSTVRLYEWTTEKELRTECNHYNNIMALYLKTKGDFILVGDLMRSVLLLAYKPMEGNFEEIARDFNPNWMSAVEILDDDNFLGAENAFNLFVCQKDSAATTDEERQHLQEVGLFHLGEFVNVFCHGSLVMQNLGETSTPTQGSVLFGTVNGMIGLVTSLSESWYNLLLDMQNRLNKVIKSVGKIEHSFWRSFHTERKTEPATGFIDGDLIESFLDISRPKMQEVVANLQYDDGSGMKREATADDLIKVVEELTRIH
Sequence of MEK4 (P45985 whole entry): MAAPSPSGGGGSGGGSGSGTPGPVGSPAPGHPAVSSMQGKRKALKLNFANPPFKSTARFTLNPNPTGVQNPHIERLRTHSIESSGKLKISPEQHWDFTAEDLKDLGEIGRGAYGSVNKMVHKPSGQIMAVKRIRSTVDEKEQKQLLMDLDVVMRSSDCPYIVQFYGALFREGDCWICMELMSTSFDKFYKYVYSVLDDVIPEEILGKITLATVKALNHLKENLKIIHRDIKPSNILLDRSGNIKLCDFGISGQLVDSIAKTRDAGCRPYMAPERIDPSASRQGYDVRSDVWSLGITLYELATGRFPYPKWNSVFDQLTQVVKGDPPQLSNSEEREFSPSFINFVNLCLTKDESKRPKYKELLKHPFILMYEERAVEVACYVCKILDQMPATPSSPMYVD
T1 sequence (Q9UKT9 whole entry): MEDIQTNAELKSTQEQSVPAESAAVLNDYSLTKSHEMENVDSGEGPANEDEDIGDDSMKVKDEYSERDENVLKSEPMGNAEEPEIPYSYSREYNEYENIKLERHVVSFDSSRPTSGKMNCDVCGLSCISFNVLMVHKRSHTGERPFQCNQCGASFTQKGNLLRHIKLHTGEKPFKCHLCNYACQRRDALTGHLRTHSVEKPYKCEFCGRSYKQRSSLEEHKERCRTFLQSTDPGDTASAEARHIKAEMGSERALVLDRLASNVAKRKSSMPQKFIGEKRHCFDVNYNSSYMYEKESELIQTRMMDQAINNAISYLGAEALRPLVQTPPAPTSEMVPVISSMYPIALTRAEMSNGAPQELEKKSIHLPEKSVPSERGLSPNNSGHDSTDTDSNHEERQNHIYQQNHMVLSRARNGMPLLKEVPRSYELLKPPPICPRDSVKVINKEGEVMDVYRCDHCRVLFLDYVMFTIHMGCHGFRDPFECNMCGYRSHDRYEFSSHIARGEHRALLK
T1 sequence (Q96SW2 whole entry): as the sequence (Q96SW2 whole entry) above
T1 sequence (Q16531 whole entry partner): as the sequence (Q16531 whole entry partner) above
Sequence of LKB1 (Q15831 whole entry): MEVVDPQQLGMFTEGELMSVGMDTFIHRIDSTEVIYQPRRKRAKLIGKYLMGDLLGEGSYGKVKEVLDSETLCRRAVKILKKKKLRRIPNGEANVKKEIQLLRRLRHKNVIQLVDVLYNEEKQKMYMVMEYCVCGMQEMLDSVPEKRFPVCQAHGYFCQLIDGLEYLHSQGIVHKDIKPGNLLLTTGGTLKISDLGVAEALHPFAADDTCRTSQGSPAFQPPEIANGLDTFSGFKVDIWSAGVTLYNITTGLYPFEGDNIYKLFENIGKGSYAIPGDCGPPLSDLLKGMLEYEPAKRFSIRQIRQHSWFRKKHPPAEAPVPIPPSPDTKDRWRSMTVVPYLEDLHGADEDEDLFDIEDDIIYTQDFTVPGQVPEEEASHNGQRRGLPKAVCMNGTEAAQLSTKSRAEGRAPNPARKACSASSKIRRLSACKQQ
T2 sequence (Q96A37 whole entry): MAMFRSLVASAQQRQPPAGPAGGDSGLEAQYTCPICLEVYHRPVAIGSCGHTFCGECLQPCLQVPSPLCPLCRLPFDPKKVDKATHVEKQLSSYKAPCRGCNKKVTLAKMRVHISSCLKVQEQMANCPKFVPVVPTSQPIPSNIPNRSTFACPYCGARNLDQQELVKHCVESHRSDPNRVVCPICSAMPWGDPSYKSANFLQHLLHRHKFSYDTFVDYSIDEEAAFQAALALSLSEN
T2 sequence (Q96SW2 whole entry): as the sequence (Q96SW2 whole entry) above
T2 sequence (Q16531 whole entry partner): as the sequence (Q16531 whole entry partner) above
Sequence of RSK2(Kin.Dom.2-C-terminal) (P51812 422-679 limits assumed): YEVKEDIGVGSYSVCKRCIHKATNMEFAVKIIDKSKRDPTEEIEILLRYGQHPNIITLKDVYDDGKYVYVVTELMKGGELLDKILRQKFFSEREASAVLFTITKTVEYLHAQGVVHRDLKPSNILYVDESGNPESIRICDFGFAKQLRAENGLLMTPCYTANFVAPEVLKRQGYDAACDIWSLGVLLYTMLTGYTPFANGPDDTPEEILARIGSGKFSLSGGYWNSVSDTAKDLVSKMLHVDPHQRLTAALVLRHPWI
Description for EGFR(L747-T751del, Sins): as §4
Description for EPHA5: as §4
Description for HUNK: as §4
Description for LKB1: as §4
Description for MEK4: as §4
Description for MKNK1: as §4
Description for MYLK4: as §4
Description for NEK1: as §4
Description for PLK2: as §4
Description for S6K1: as §4
Description for SGK2: as §4

Turning to `O=C1CCC(N2C(=O)c3cccc(NCCCCCCCCNC(=O)N4CC[C@H](NC5=Nc6cc(F)ccc6N(CC(F)F)c6ccc(Cl)cc65)C4)c3C2=O)C(=O)N1` (stereo partly drawn) [BJG-05-039, (3S)-3-((2-Chloro-5-(2,2-difluoroethyl)-8-fluoro-5H-dibenzo[b,e][1,4]diazepin-11-yl)amino)-N-(8-((2-(2,6-dioxopiperidin-3-yl)-1,3-dioxoisoindolin-4-yl)amino)octyl)pyrrolidine-1-carboxamide], the remaining binding at 10 µM at NEK1 stood at 83%; at MYLK, 100%; at MEK4, 85%; on MKNK1, 100%; at S6K1, 89%; at LKB1 it was 89%. Also, the remaining binding at 10 µM at MYLK4 came to 100%; on HUNK it was 100%; at EPHA5, 99%; at SGK2 it was 76%; at PLK2 it was 100%; at EGFR(L747-T751del, Sins), 80%. Moreover, the values for the remaining binding at 10 µM in [1] and in test [2] were 87% and 100%, respectively. Also, the “Change in protein abundance” value at Aiolos (IKZF3), on RNF166 and at Ikaros (IKZF1) was “strongly downregulated” throughout.
